This assay concerns Vcap cells. Description: Dihydrotestosterone (DHT) mediated XTT cell proliferation assay for screening AR antagonists using Vcap cells. Particulars: in the presence of 0.2 nM DHT, XTT readout on Day 10, IC50 curves from 8 concentrations. It is filed as cell-based. The essentials:
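VCaP cells, starved 5 days in phenol red-free DMEM with 8% charcoal-stripped serum, were plated and treated on Day 4 with compound (0.1 nM-30 μM, 8 concentrations) plus 0.2 nM DHT, redosed Day 7. On Day 10 viability was read by XTT at 465 nm; IC50 from sigmoidal dose-response fit.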

What is called IC50 is the concentration needed to halve the response being measured.

For `COCCONC(=O)c1ccc(N2C(=O)N(c3ccc(C#N)c(C(F)(F)F)c3)[C@H]3CCCC[C@@H]32)cc1F` [Example 29, 4-((3aS,7aS)-3-(4-Cyano-3-(trifluoromethyl)phenyl)-2-oxooctahydro-1H-benzo[d]imidazol-1-yl)-2-fluoro-N-(2-methoxyethoxy)benzamide], where the note is “Homo sapiens, 240 h”, the IC50 was 176 nM.
On the same count and under the same terms, in the case of `CNC(=O)c1ccc(N2C(=O)N(c3ccc(C#N)c(C(F)(F)F)c3)[C@@H]3CCC(O)C[C@H]32)cc1F` (mixture of isomers) [Example 82, Trans-4-(3-(4-cyano-3-(trifluoromethyl)phenyl)-6-hydroxy-2-oxooctahydro-1H-benzo[d]imidazol-1-yl)-2-fluoro-N-methylbenzamide (±)] it was 583 nM.
Regarding `N#Cc1ccc(N2C(=O)N(c3ccccc3)[C@@H]3CCCC[C@H]32)cc1C(F)(F)F` (relative stereo) [Example 5b, Trans-4-(2-oxo-3-phenyloctahydro-1H-benzo[d]imidazol-1-yl)-2-(trifluoromethyl)benzonitrile (−)], the IC50 turned out to be 1050 nM.
For `N#Cc1ccc(N2C(=O)N(c3ccc(C(=O)NCCO)c(F)c3)[C@H]3CCCC[C@@H]32)cc1C(F)(F)F` [Example 33, 4-((3aS,7aS)-3-(4-cyano-3-(trifluoromethyl)phenyl)-2-oxooctahydro-1H-benzo[d]imidazol-1-yl)-2-fluoro-N-(2-hydroxyethyl)benzamide], where the note is “Homo sapiens, 240 h”, the IC50 turned out to be 43.6 nM.
The same measure, in the same setting: in the case of `N#Cc1ccc(N2C(=O)N(c3ccc(CO)c(F)c3)[C@H]3CCCC[C@@H]32)cc1C(F)(F)F` [Example 46, 4-((3aS,7aS)-3-(3-fluoro-4-(hydroxymethyl)phenyl)-2-oxooctahydro-1H-benzo[d]imidazol-1-yl)-2-(trifluoromethyl)benzonitrile] it was 660 nM.
`N#Cc1ccc(N2C(=O)N(c3ccc(C(N)=O)c(F)c3)[C@H]3CCCC[C@@H]32)cc1C(F)(F)F` [Example 31, 4-((3aS,7aS)-3-(4-cyano-3-(trifluoromethyl)phenyl)-2-oxooctahydro-1H-benzo[d]imidazol-1-yl)-2-fluorobenzamide]: the IC50 (Homo sapiens, 240 h) was 37.2 nM.
Same read-out and setting: in the case of `CNC(=O)c1cc(N2C(=O)N(c3ccc(C#N)c(C(F)(F)F)c3)[C@H]3CCCC[C@@H]32)ccn1` [Example 56, 4-((3aS,7aS)-3-(4-cyano-3-(trifluoromethyl)phenyl)-2-oxooctahydro-1H-benzo[d]imidazol-1-yl)-N-methylpicolinamide] it was 1820 nM; in that of `CNC(=O)c1ccc(N2C(=O)N(c3ccc(C#N)c(C(F)(F)F)c3)[C@@H]3CCCC[C@H]32)cc1C` (racemic) [Example 39, Trans-4-(3-(4-cyano-3-(trifluoromethyl)phenyl)-2-oxooctahydro-1H-benzo[d]im-idazol-1-yl)-N,2-dimethylbenzamide (±)], 399 nM; in that of `N#Cc1ccc(N2C(=O)N(c3ccnc(C(F)(F)F)c3)[C@@H]3CCCC[C@H]32)cc1C(F)(F)F` (racemic) [Example 11, Trans-4-(2-oxo-3-(2-(trifluoromethyl)pyridin-4-yl)octahydro-1H-benzo[d]imidazol-1-yl)-2-(trifluoromethyl)benzonitrile (±)], 1240 nM.
Same read-out and setting: in the case of `CC(C)CONC(=O)c1ccc(N2C(=O)N(c3ccc(C#N)c(C(F)(F)F)c3)[C@@H]3CCCC[C@H]32)cc1F` (racemic) [Example 22, Trans-4-(3-(4-cyano-3-(trifluoromethyl)phenyl)-2-oxooctahydro-1H-benzo[d]im-idazol-1-yl)-2-fluoro-N-isobutoxybenzamide (±)] it was 196 nM; in that of `N#Cc1ccc(N2C(=O)N(c3cnccc3C3CC3)[C@H]3CCCC[C@@H]32)cc1C(F)(F)F` [Example 62, 4-((3aS,7aS)-3-(4-cyclopropylpyridin-3-yl)-2-oxooctahydro-1H-benzo[d]imidazol-1-yl)-2-(trifluoromethyl)benzonitrile], 2160 nM.
On to `N#Cc1ccc(N2C(=O)N(c3ccc(C(=O)NOCC4CC4)c(F)c3)[C@@H]3CCCC[C@H]32)cc1C(F)(F)F` (racemic) [Example 19, Trans-4-(3-(4-cyano-3-(trifluoromethyl)phenyl)-2-oxooctahydro-1H-benzo[d]im-idazol-1-yl)-N-(cyclopropylmethoxy)-2-fluorobenzamide (±)], for which the IC50 (Homo sapiens, 240 h) stood at 233 nM.
On to “4-((3aS,7aS)-3-(4-cyano-3-(trifluoromethyl)phenyl)-2-oxooctahydro-1H-benzo[d]imidazol-1-yl)-2-fluoro-N—((S)-tetrahydrofuran-3-yl)benzamide and 4-((3aS,7aS)-3-(4-cyano-3-(trifluoromethyl)phenyl)-2-oxooctahydro-1H-benzo[c]imidazol-1-yl)-2-fluoro-N—((R)-tetrahydrofuran-3-yl)benzamide [Example 35]”, for which the IC50 was 236 nM.
Consider `CS(=O)(=O)Nc1ccc(N2C(=O)N(c3ccc(C#N)c(C(F)(F)F)c3)[C@@H]3CCCC[C@H]32)cc1F` (racemic) [Example 16, Trans-N-(4-(3-(4-cyano-3-(trifluoromethyl)phenyl)-2-oxooctahydro-1H-benzo[d]imidazol-1-yl)-2-fluorophenyl)methanesulfonamide (±)], for which the IC50 (Homo sapiens, 240 h) turned out to be 2450 nM.
Still for that read-out and setting: in the case of `CC(CO)ONC(=O)c1ccc(N2C(=O)N(c3ccc(C#N)c(C(F)(F)F)c3)[C@@H]3CCCC[C@H]32)cc1F` (mixture of isomers) [Example 24, Trans-4-(3-(4-cyano-3-(trifluoromethyl)phenyl)-2-oxooctahydro-1H-benzo[c]im-idazol-1-yl)-2-fluoro-N-((1-hydroxypropan-2-yl)oxy)benzamide (±)] it was 1520 nM.
Consider `CNC(=O)c1ccc(N2C(=O)N(c3ccc(C#N)c(C(F)(F)F)c3)[C@@H]3CCCCC[C@H]32)cc1F` (relative stereo) [Example 80a, Trans-4-(3-(4-cyano-3-(trifluoromethyl)phenyl)-2-oxooctahydrocyclohepta[d]imidazol-1(2H)-yl)-2-fluoro-N-methylbenzamide (−)], for which the concentration for half-maximal inhibition (IC50) was determined as 93.7 nM.
`N#Cc1ccc(N2C(=O)N(c3ccc(C(=O)N[C@@H]4CCOC4)c(F)c3)[C@H]3CCCC[C@@H]32)cc1C(F)(F)F` [Example 36]: for the setting “Homo sapiens, 240 h”, the IC50 is 203 nM.
The same measure, in the same setting: in the case of `CNC(=O)c1ccc(N2C(=O)N(c3ccc(C#N)c(C(F)(F)F)c3)[C@@H]3CCCCC[C@H]32)cc1F` (racemic) [Example 80, Trans-4-(3-(4-cyano-3-(trifluoromethyl)phenyl)-2-oxooctahydrocyclohepta[d]imidazol-1(2H)-yl)-2-fluoro-N-methylbenzamide (±)] it was 254 nM; in that of `CNc1ccc(N2C(=O)N(c3ccc(C#N)c(C(F)(F)F)c3)[C@@H]3CCCC[C@H]32)cc1F` (racemic) [Example 14, Trans-4-(3-(3-fluoro-4-(methylamino)phenyl)-2-oxooctahydro-1H-benzo[d]im-idazol-1-yl)-2-(trifluoromethyl)benzonitrile (±)], 715 nM.
Turning to `N#Cc1ccc(N2C(=O)N(c3ccoc3)[C@@H]3CCCC[C@H]32)cc1C(F)(F)F` (racemic) [Example 3, Trans-4-(3-(furan-3-yl)-2-oxoocta-hydro-1H-benzo[d]imidazol-1-yl)-2-trifluoromethyl)benzonitrile (±)], under “Homo sapiens, 240 h”, the IC50 turned out to be 1520 nM.
With `N#Cc1ccc(N2C(=O)N(c3ccncc3)[C@@H]3CCCC[C@H]32)cc1C(F)(F)F` (racemic) [Example 4, Trans-4-(2-oxo-3-(pyridin-4-yl)octahydro-1H-benzo[d]imidazol-1-yl)-2-(trifluoromethyl)benzonitrile (±)], the 50% inhibitory concentration (IC50) (Homo sapiens, 240 h) was found to be 1040 nM.

The values above are taken from patent publication US20140329858A1, “Cyclic Urea Derivatives As Androgen Receptor Antagonists” (priority 2011, published 2014).
